# Measured values from the OligoGym collection.
# Oligonucleotides are given in HELM: sugar(base)linkage, 5' to 3'; d 2'-deoxyribose, r ribose, m 2'-O-methylribose, p phosphate. ss, as = sense and antisense strand
# Biological target: SOST
# Assay: reporter assay of Huesken 2005
# Settings: siRNA
# Also: test concentration or dose not given here.
row,Substance,normalised inhibition (eCFP-eYFP dual reporter)
1,RNA1{r(G)p.r(C)p.r(G)p.r(U)p.r(U)p.r(C)p.r(A)p.r(A)p.r(G)p.r(A)p.r(A)p.r(U)p.r(G)p.r(A)p.r(U)p.r(G)p.r(C)p.r(C)p.r(A)p.d(T)p.d(T)}|RNA2{r(U)p.r(G)p.r(G)p.r(C)p.r(A)p.r(U)p.r(C)p.r(A)p.r(U)p.r(U)p.r(C)p.r(U)p.r(U)p.r(G)p.r(A)p.r(A)p.r(C)p.r(G)p.r(C)p.d(C)p.d(T)}$$$RNA1{StrandType:ss}|RNA2{StrandType:as}$,93.4%
2,RNA1{r(G)p.r(C)p.r(U)p.r(A)p.r(C)p.r(C)p.r(G)p.r(C)p.r(G)p.r(C)p.r(G)p.r(C)p.r(A)p.r(G)p.r(C)p.r(G)p.r(C)p.r(G)p.r(U)p.d(T)p.d(T)}|RNA2{r(A)p.r(C)p.r(G)p.r(C)p.r(G)p.r(C)p.r(U)p.r(G)p.r(C)p.r(G)p.r(C)p.r(G)p.r(C)p.r(G)p.r(G)p.r(U)p.r(A)p.r(G)p.r(C)p.d(G)p.d(G)}$$$RNA1{StrandType:ss}|RNA2{StrandType:as}$,51.8%
3,RNA1{r(G)p.r(C)p.r(U)p.r(C)p.r(C)p.r(G)p.r(G)p.r(C)p.r(C)p.r(A)p.r(G)p.r(U)p.r(G)p.r(C)p.r(G)p.r(G)p.r(C)p.r(C)p.r(C)p.d(T)p.d(T)}|RNA2{r(G)p.r(G)p.r(G)p.r(C)p.r(C)p.r(G)p.r(C)p.r(A)p.r(C)p.r(U)p.r(G)p.r(G)p.r(C)p.r(C)p.r(G)p.r(G)p.r(A)p.r(G)p.r(C)p.d(A)p.d(C)}$$$RNA1{StrandType:ss}|RNA2{StrandType:as}$,53%
4,RNA1{r(G)p.r(C)p.r(U)p.r(G)p.r(C)p.r(A)p.r(C)p.r(U)p.r(U)p.r(C)p.r(A)p.r(C)p.r(C)p.r(C)p.r(G)p.r(C)p.r(U)p.r(A)p.r(C)p.d(T)p.d(T)}|RNA2{r(G)p.r(U)p.r(A)p.r(G)p.r(C)p.r(G)p.r(G)p.r(G)p.r(U)p.r(G)p.r(A)p.r(A)p.r(G)p.r(U)p.r(G)p.r(C)p.r(A)p.r(G)p.r(C)p.d(T)p.d(C)}$$$RNA1{StrandType:ss}|RNA2{StrandType:as}$,75.4%
5,RNA1{r(G)p.r(G)p.r(A)p.r(C)p.r(C)p.r(G)p.r(A)p.r(G)p.r(G)p.r(C)p.r(C)p.r(G)p.r(C)p.r(U)p.r(C)p.r(G)p.r(G)p.r(C)p.r(C)p.d(T)p.d(T)}|RNA2{r(G)p.r(G)p.r(C)p.r(C)p.r(G)p.r(A)p.r(G)p.r(C)p.r(G)p.r(G)p.r(C)p.r(C)p.r(U)p.r(C)p.r(G)p.r(G)p.r(U)p.r(C)p.r(C)p.d(C)p.d(G)}$$$RNA1{StrandType:ss}|RNA2{StrandType:as}$,50.7%
6,RNA1{r(G)p.r(G)p.r(A)p.r(C)p.r(U)p.r(U)p.r(C)p.r(G)p.r(G)p.r(G)p.r(A)p.r(C)p.r(C)p.r(G)p.r(A)p.r(G)p.r(G)p.r(C)p.r(C)p.d(T)p.d(T)}|RNA2{r(G)p.r(G)p.r(C)p.r(C)p.r(U)p.r(C)p.r(G)p.r(G)p.r(U)p.r(C)p.r(C)p.r(C)p.r(G)p.r(A)p.r(A)p.r(G)p.r(U)p.r(C)p.r(C)p.d(T)p.d(T)}$$$RNA1{StrandType:ss}|RNA2{StrandType:as}$,53.8%
7,RNA1{r(G)p.r(G)p.r(A)p.r(G)p.r(C)p.r(U)p.r(C)p.r(A)p.r(A)p.r(G)p.r(G)p.r(A)p.r(C)p.r(U)p.r(U)p.r(C)p.r(G)p.r(G)p.r(G)p.d(T)p.d(T)}|RNA2{r(C)p.r(C)p.r(C)p.r(G)p.r(A)p.r(A)p.r(G)p.r(U)p.r(C)p.r(C)p.r(U)p.r(U)p.r(G)p.r(A)p.r(G)p.r(C)p.r(U)p.r(C)p.r(C)p.d(G)p.d(A)}$$$RNA1{StrandType:ss}|RNA2{StrandType:as}$,75%
8,RNA1{r(G)p.r(G)p.r(G)p.r(C)p.r(G)p.r(G)p.r(C)p.r(C)p.r(U)p.r(C)p.r(C)p.r(C)p.r(C)p.r(A)p.r(C)p.r(C)p.r(A)p.r(C)p.r(C)p.d(T)p.d(T)}|RNA2{r(G)p.r(G)p.r(U)p.r(G)p.r(G)p.r(U)p.r(G)p.r(G)p.r(G)p.r(G)p.r(A)p.r(G)p.r(G)p.r(C)p.r(C)p.r(G)p.r(C)p.r(C)p.r(C)p.d(T)p.d(C)}$$$RNA1{StrandType:ss}|RNA2{StrandType:as}$,64.3%
9,RNA1{r(G)p.r(G)p.r(G)p.r(G)p.r(U)p.r(G)p.r(G)p.r(C)p.r(A)p.r(G)p.r(G)p.r(C)p.r(G)p.r(U)p.r(U)p.r(C)p.r(A)p.r(A)p.r(G)p.d(T)p.d(T)}|RNA2{r(C)p.r(U)p.r(U)p.r(G)p.r(A)p.r(A)p.r(C)p.r(G)p.r(C)p.r(C)p.r(U)p.r(G)p.r(C)p.r(C)p.r(A)p.r(C)p.r(C)p.r(C)p.r(C)p.d(T)p.d(G)}$$$RNA1{StrandType:ss}|RNA2{StrandType:as}$,48.7%
10,RNA1{r(G)p.r(G)p.r(U)p.r(G)p.r(A)p.r(G)p.r(G)p.r(C)p.r(G)p.r(C)p.r(C)p.r(G)p.r(C)p.r(G)p.r(C)p.r(G)p.r(C)p.r(G)p.r(C)p.d(T)p.d(T)}|RNA2{r(G)p.r(C)p.r(G)p.r(C)p.r(G)p.r(C)p.r(G)p.r(C)p.r(G)p.r(G)p.r(C)p.r(G)p.r(C)p.r(C)p.r(U)p.r(C)p.r(A)p.r(C)p.r(C)p.d(A)p.d(C)}$$$RNA1{StrandType:ss}|RNA2{StrandType:as}$,26%
11,RNA1{r(G)p.r(U)p.r(A)p.r(G)p.r(U)p.r(G)p.r(G)p.r(A)p.r(G)p.r(G)p.r(G)p.r(C)p.r(C)p.r(A)p.r(G)p.r(G)p.r(G)p.r(G)p.r(U)p.d(T)p.d(T)}|RNA2{r(A)p.r(C)p.r(C)p.r(C)p.r(C)p.r(U)p.r(G)p.r(G)p.r(C)p.r(C)p.r(C)p.r(U)p.r(C)p.r(C)p.r(A)p.r(C)p.r(U)p.r(A)p.r(C)p.d(A)p.d(C)}$$$RNA1{StrandType:ss}|RNA2{StrandType:as}$,63.5%
12,RNA1{r(G)p.r(U)p.r(G)p.r(C)p.r(C)p.r(G)p.r(C)p.r(A)p.r(G)p.r(C)p.r(G)p.r(C)p.r(C)p.r(A)p.r(A)p.r(G)p.r(C)p.r(C)p.r(G)p.d(T)p.d(T)}|RNA2{r(C)p.r(G)p.r(G)p.r(C)p.r(U)p.r(U)p.r(G)p.r(G)p.r(C)p.r(G)p.r(C)p.r(U)p.r(G)p.r(C)p.r(G)p.r(G)p.r(C)p.r(A)p.r(C)p.d(G)p.d(G)}$$$RNA1{StrandType:ss}|RNA2{StrandType:as}$,49.6%
13,RNA1{r(G)p.r(U)p.r(G)p.r(G)p.r(A)p.r(G)p.r(G)p.r(G)p.r(C)p.r(C)p.r(A)p.r(G)p.r(G)p.r(G)p.r(G)p.r(U)p.r(G)p.r(G)p.r(C)p.d(T)p.d(T)}|RNA2{r(G)p.r(C)p.r(C)p.r(A)p.r(C)p.r(C)p.r(C)p.r(C)p.r(U)p.r(G)p.r(G)p.r(C)p.r(C)p.r(C)p.r(U)p.r(C)p.r(C)p.r(A)p.r(C)p.d(T)p.d(A)}$$$RNA1{StrandType:ss}|RNA2{StrandType:as}$,52.8%
14,RNA1{r(G)p.r(U)p.r(G)p.r(G)p.r(U)p.r(G)p.r(A)p.r(G)p.r(G)p.r(C)p.r(G)p.r(C)p.r(C)p.r(G)p.r(C)p.r(G)p.r(C)p.r(G)p.r(C)p.d(T)p.d(T)}|RNA2{r(G)p.r(C)p.r(G)p.r(C)p.r(G)p.r(C)p.r(G)p.r(G)p.r(C)p.r(G)p.r(C)p.r(C)p.r(U)p.r(C)p.r(A)p.r(C)p.r(C)p.r(A)p.r(C)p.d(C)p.d(G)}$$$RNA1{StrandType:ss}|RNA2{StrandType:as}$,65.2%
15,RNA1{r(G)p.r(U)p.r(G)p.r(U)p.r(C)p.r(C)p.r(C)p.r(G)p.r(G)p.r(U)p.r(G)p.r(G)p.r(U)p.r(G)p.r(A)p.r(G)p.r(G)p.r(C)p.r(G)p.d(T)p.d(T)}|RNA2{r(C)p.r(G)p.r(C)p.r(C)p.r(U)p.r(C)p.r(A)p.r(C)p.r(C)p.r(A)p.r(C)p.r(C)p.r(G)p.r(G)p.r(G)p.r(A)p.r(C)p.r(A)p.r(C)p.d(A)p.d(G)}$$$RNA1{StrandType:ss}|RNA2{StrandType:as}$,62.9%
16,RNA1{r(U)p.r(A)p.r(G)p.r(U)p.r(G)p.r(G)p.r(A)p.r(G)p.r(G)p.r(G)p.r(C)p.r(C)p.r(A)p.r(G)p.r(G)p.r(G)p.r(G)p.r(U)p.r(G)p.d(T)p.d(T)}|RNA2{r(C)p.r(A)p.r(C)p.r(C)p.r(C)p.r(C)p.r(U)p.r(G)p.r(G)p.r(C)p.r(C)p.r(C)p.r(U)p.r(C)p.r(C)p.r(A)p.r(C)p.r(U)p.r(A)p.d(C)p.d(A)}$$$RNA1{StrandType:ss}|RNA2{StrandType:as}$,72%
17,RNA1{r(U)p.r(C)p.r(A)p.r(A)p.r(G)p.r(A)p.r(A)p.r(U)p.r(G)p.r(A)p.r(U)p.r(G)p.r(C)p.r(C)p.r(A)p.r(C)p.r(G)p.r(G)p.r(A)p.d(T)p.d(T)}|RNA2{r(U)p.r(C)p.r(C)p.r(G)p.r(U)p.r(G)p.r(G)p.r(C)p.r(A)p.r(U)p.r(C)p.r(A)p.r(U)p.r(U)p.r(C)p.r(U)p.r(U)p.r(G)p.r(A)p.d(A)p.d(C)}$$$RNA1{StrandType:ss}|RNA2{StrandType:as}$,68.7%
18,RNA1{r(U)p.r(C)p.r(A)p.r(A)p.r(G)p.r(G)p.r(A)p.r(C)p.r(U)p.r(U)p.r(C)p.r(G)p.r(G)p.r(G)p.r(A)p.r(C)p.r(C)p.r(G)p.r(A)p.d(T)p.d(T)}|RNA2{r(U)p.r(C)p.r(G)p.r(G)p.r(U)p.r(C)p.r(C)p.r(C)p.r(G)p.r(A)p.r(A)p.r(G)p.r(U)p.r(C)p.r(C)p.r(U)p.r(U)p.r(G)p.r(A)p.d(G)p.d(C)}$$$RNA1{StrandType:ss}|RNA2{StrandType:as}$,61.3%
19,RNA1{r(U)p.r(C)p.r(G)p.r(G)p.r(A)p.r(G)p.r(C)p.r(U)p.r(C)p.r(A)p.r(A)p.r(G)p.r(G)p.r(A)p.r(C)p.r(U)p.r(U)p.r(C)p.r(G)p.d(T)p.d(T)}|RNA2{r(C)p.r(G)p.r(A)p.r(A)p.r(G)p.r(U)p.r(C)p.r(C)p.r(U)p.r(U)p.r(G)p.r(A)p.r(G)p.r(C)p.r(U)p.r(C)p.r(C)p.r(G)p.r(A)p.d(C)p.d(T)}$$$RNA1{StrandType:ss}|RNA2{StrandType:as}$,61.8%
20,RNA1{r(U)p.r(C)p.r(G)p.r(G)p.r(C)p.r(C)p.r(G)p.r(C)p.r(G)p.r(G)p.r(C)p.r(A)p.r(A)p.r(G)p.r(U)p.r(G)p.r(G)p.r(U)p.r(G)p.d(T)p.d(T)}|RNA2{r(C)p.r(A)p.r(C)p.r(C)p.r(A)p.r(C)p.r(U)p.r(U)p.r(G)p.r(C)p.r(C)p.r(G)p.r(C)p.r(G)p.r(G)p.r(C)p.r(C)p.r(G)p.r(A)p.d(T)p.d(G)}$$$RNA1{StrandType:ss}|RNA2{StrandType:as}$,66%
